Measurements taken from patent US11780893B2, “Kv1.3 blockers” (Zealand Pharma A/S, priority 2019, dated 2023).
Bridge positions count the residues as written; N and C are the ends. Square brackets hold non-standard residues; d marks the D form. Peptide text beside a SMILES is read from it. Nle = CCCC[C@H](N)C(=O)O

The molecules below were run against T1, human Kv1.3 voltage-gated K+ channel (Homo sapiens, UniProt P22001) (assay: cell-based). Conditions: inhibition of thallium flux, CHO-DUKX cells with human Kv1.3; read-out: IC50.
T1 construct: host or cells: CHO-DUKX
T1 sequence (P22001 whole entry): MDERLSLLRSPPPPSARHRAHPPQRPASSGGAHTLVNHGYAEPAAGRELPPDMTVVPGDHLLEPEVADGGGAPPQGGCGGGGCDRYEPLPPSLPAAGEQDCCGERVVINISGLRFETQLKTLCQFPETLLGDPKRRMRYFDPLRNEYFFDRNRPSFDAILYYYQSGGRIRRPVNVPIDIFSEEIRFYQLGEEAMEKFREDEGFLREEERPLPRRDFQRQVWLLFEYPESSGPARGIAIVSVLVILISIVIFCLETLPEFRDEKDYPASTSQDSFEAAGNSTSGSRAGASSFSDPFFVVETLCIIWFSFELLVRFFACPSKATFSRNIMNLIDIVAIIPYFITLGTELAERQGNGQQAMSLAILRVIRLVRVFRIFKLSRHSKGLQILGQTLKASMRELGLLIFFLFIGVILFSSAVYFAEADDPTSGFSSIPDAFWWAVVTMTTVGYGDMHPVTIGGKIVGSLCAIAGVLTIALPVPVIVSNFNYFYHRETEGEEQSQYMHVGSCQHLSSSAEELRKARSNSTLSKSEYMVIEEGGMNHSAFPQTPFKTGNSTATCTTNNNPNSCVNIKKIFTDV
`CCCC[C@@H]1NC(=O)[C@@H]2CSSC[C@H](NC(=O)[C@H](CCCNC(=N)N)NC(=O)[C@H](CCCC)NC(=O)[C@H](CCC(=O)O)NC(=O)[C@@H](N)CCCC)C(=O)N[C@@H](CO)C(=O)N[C@@H](C)C(=O)N[C@@H](CO)C(=O)N[C@@H](C(C)C)C(=O)N[C@@H](CCC(=O)O)C(=O)N[C@H]3CSSC[C@H](NC(=O)[C@H](CCCCN)NC(=O)[C@H](CCCCN)NC(=O)[C@H](CC(N)=O)NC1=O)C(=O)N[C@@H](CCCCN)C(=O)N[C@H](C(=O)N[C@@H](Cc1ccc(O)cc1)C(=O)N1CCC[C@H]1C(=O)N[C@@H](CCCNC(=N)N)C(=O)O)CSSC[C@H](NC(=O)[C@H](CCCCN)NC(=O)[C@H](CCC(N)=O)NC(=O)[C@H](CCCCN)NC3=O)C(=O)N[C@@H](CC(C)C)C(=O)N[C@@H](C)C(=O)N[C@@H](C)C(=O)N[C@@H]([C@@H](C)CC)C(=O)NCC(=O)N[C@@H](CO)C(=O)N[C@@H]([C@@H](C)CC)C(=O)N[C@@H](Cc1ccccc1)C(=O)NCC(=O)N[C@@H](CCCCN)C(=O)N2` [Compound 121] (H-[Nle]E[Nle]RCSASVECKQKCLAAIGSIFGKC[Nle]NKKCKCYPR-OH; disulfide 5-26, 11-31, 15-33) showed an IC50 of 0.451 nM. `CCCC[C@H](NC(=O)[C@@H]1CCCN1)C(=O)N[C@@H](CCC(=O)O)C(=O)N[C@@H](CCCC)C(=O)N[C@@H](CCCNC(=N)N)C(=O)N[C@H]1CSSC[C@@H]2NC(=O)[C@H](CCCCN)NC(=O)CNC(=O)[C@H](Cc3ccccc3)NC(=O)[C@H]([C@@H](C)CC)NC(=O)[C@H](CO)NC(=O)CNC(=O)[C@H]([C@@H](C)CC)NC(=O)[C@H](C)NC(=O)[C@H](C)NC(=O)[C@H](CC(C)C)NC(=O)[C@@H]3CSSC[C@@H](C(=O)N[C@@H](Cc4ccc(O)cc4)C(=O)N4CCC[C@H]4C(=O)N[C@@H](CCCNC(=N)N)C(=O)N[C@@H](CCCNC(=N)N)C(=O)O)NC(=O)[C@H](CCCCN)NC(=O)[C@H](CSSC[C@H](NC(=O)[C@H](CCC(=O)O)NC(=O)[C@H](C(C)C)NC(=O)[C@H](CO)NC(=O)[C@H](C)NC(=O)[C@H](CO)NC1=O)C(=O)N[C@@H](CCCCN)C(=O)N[C@@H](CCC(N)=O)C(=O)N[C@@H](CCCCN)C(=O)N3)NC(=O)[C@H](CCCCN)NC(=O)[C@H](CCCCN)NC(=O)[C@H](CC(N)=O)NC(=O)[C@H](CCCC)NC2=O` [Compound 122] (H-P[Nle]E[Nle]RCSASVECKQKCLAAIGSIFGKC[Nle]NKKCKCYPRR-OH; disulfide 6-27, 12-32, 16-34) was tested, and the IC50 was 0.226 nM. For `CCCC[C@H](NC(=O)[C@@H]1CCCN1)C(=O)N[C@@H](CCC(=O)O)C(=O)N[C@@H](CCCC)C(=O)N[C@@H](CCCNC(=N)N)C(=O)N[C@H]1CSSC[C@@H]2NC(=O)[C@H](CCCCN)NC(=O)CNC(=O)[C@H](Cc3ccccc3)NC(=O)[C@H]([C@@H](C)CC)NC(=O)[C@H](CO)NC(=O)CNC(=O)[C@H]([C@@H](C)CC)NC(=O)[C@H](C)NC(=O)[C@H](C)NC(=O)[C@H](CC(C)C)NC(=O)[C@@H]3CSSC[C@@H](C(=O)N[C@@H](Cc4ccc(O)cc4)C(=O)N4CCC[C@H]4C(=O)N[C@@H](CCCNC(=N)N)C(=O)N[C@@H](Cc4ccc(O)cc4)C(=O)O)NC(=O)[C@H](CCCCN)NC(=O)[C@H](CSSC[C@H](NC(=O)[C@H](CCC(=O)O)NC(=O)[C@H](C(C)C)NC(=O)[C@H](CO)NC(=O)[C@H](C)NC(=O)[C@H](CO)NC1=O)C(=O)N[C@@H](CCCCN)C(=O)N[C@@H](CCC(N)=O)C(=O)N[C@@H](CCCCN)C(=O)N3)NC(=O)[C@H](CCCCN)NC(=O)[C@H](CCCCN)NC(=O)[C@H](CC(N)=O)NC(=O)[C@H](CCCC)NC2=O` [Compound 123] (H-P[Nle]E[Nle]RCSASVECKQKCLAAIGSIFGKC[Nle]NKKCKCYPRY-OH; disulfide 6-27, 12-32, 16-34), the IC50 was 1.04 nM. Molecule `CCCC[C@H](NC(=O)[C@@H]1CCCN1)C(=O)N[C@@H](CCC(=O)O)C(=O)N[C@@H](CCCC)C(=O)N[C@@H](CCCNC(=N)N)C(=O)N[C@H]1CSSC[C@@H]2NC(=O)[C@H](CCCCN)NC(=O)CNC(=O)[C@H](Cc3ccccc3)NC(=O)[C@H]([C@@H](C)CC)NC(=O)[C@H](CO)NC(=O)CNC(=O)[C@H]([C@@H](C)CC)NC(=O)[C@H](C)NC(=O)[C@H](C)NC(=O)[C@H](CC(C)C)NC(=O)[C@@H]3CSSC[C@@H](C(=O)N[C@@H](Cc4ccc(O)cc4)C(=O)N4CCC[C@H]4C(=O)N[C@@H](CCCNC(=N)N)C(=O)N[C@@H](CC(C)C)C(=O)O)NC(=O)[C@H](CCCCN)NC(=O)[C@H](CSSC[C@H](NC(=O)[C@H](CCC(=O)O)NC(=O)[C@H](C(C)C)NC(=O)[C@H](CO)NC(=O)[C@H](C)NC(=O)[C@H](CO)NC1=O)C(=O)N[C@@H](CCCCN)C(=O)N[C@@H](CCC(N)=O)C(=O)N[C@@H](CCCCN)C(=O)N3)NC(=O)[C@H](CCCCN)NC(=O)[C@H](CCCCN)NC(=O)[C@H](CC(N)=O)NC(=O)[C@H](CCCC)NC2=O` [Compound 124] (H-P[Nle]E[Nle]RCSASVECKQKCLAAIGSIFGKC[Nle]NKKCKCYPRL-OH; disulfide 6-27, 12-32, 16-34) has an IC50 of 1.47 nM. `CCCC[C@H](NC(=O)[C@@H]1CCCN1)C(=O)N[C@@H](CCC(=O)O)C(=O)N[C@@H](CCCC)C(=O)N[C@@H](CCCNC(=N)N)C(=O)N[C@H]1CSSC[C@@H]2NC(=O)[C@H](CCCCN)NC(=O)CNC(=O)[C@H](Cc3ccccc3)NC(=O)[C@H]([C@@H](C)CC)NC(=O)[C@H](CO)NC(=O)CNC(=O)[C@H]([C@@H](C)CC)NC(=O)[C@H](C)NC(=O)[C@H](C)NC(=O)[C@H](CC(C)C)NC(=O)[C@@H]3CSSC[C@@H](C(=O)N[C@@H](Cc4ccc(O)cc4)C(=O)N4CCC[C@H]4C(=O)N[C@@H](CCCNC(=N)N)C(=O)N[C@@H](Cc4c[nH]cn4)C(=O)O)NC(=O)[C@H](CCCCN)NC(=O)[C@H](CSSC[C@H](NC(=O)[C@H](CCC(=O)O)NC(=O)[C@H](C(C)C)NC(=O)[C@H](CO)NC(=O)[C@H](C)NC(=O)[C@H](CO)NC1=O)C(=O)N[C@@H](CCCCN)C(=O)N[C@@H](CCC(N)=O)C(=O)N[C@@H](CCCCN)C(=O)N3)NC(=O)[C@H](CCCCN)NC(=O)[C@H](CCCCN)NC(=O)[C@H](CC(N)=O)NC(=O)[C@H](CCCC)NC2=O` [Compound 125] (H-P[Nle]E[Nle]RCSASVECKQKCLAAIGSIFGKC[Nle]NKKCKCYPRH-OH; disulfide 6-27, 12-32, 16-34) showed an IC50 of 0.383 nM. Work on `CCCC[C@H](NC(=O)[C@@H]1CCCN1)C(=O)N[C@@H](CCC(=O)O)C(=O)N[C@@H](CCCC)C(=O)N[C@@H](CCCNC(=N)N)C(=O)N[C@H]1CSSC[C@@H]2NC(=O)[C@H](CCCCN)NC(=O)CNC(=O)[C@H](Cc3ccccc3)NC(=O)[C@H]([C@@H](C)CC)NC(=O)[C@H](CO)NC(=O)CNC(=O)[C@H]([C@@H](C)CC)NC(=O)[C@H](C)NC(=O)[C@H](C)NC(=O)[C@H](CC(C)C)NC(=O)[C@@H]3CSSC[C@@H](C(=O)N[C@@H](Cc4ccc(O)cc4)C(=O)N4CCC[C@H]4C(=O)N[C@@H](CCCNC(=N)N)C(=O)N[C@@H](CCC(=O)O)C(=O)O)NC(=O)[C@H](CCCCN)NC(=O)[C@H](CSSC[C@H](NC(=O)[C@H](CCC(=O)O)NC(=O)[C@H](C(C)C)NC(=O)[C@H](CO)NC(=O)[C@H](C)NC(=O)[C@H](CO)NC1=O)C(=O)N[C@@H](CCCCN)C(=O)N[C@@H](CCC(N)=O)C(=O)N[C@@H](CCCCN)C(=O)N3)NC(=O)[C@H](CCCCN)NC(=O)[C@H](CCCCN)NC(=O)[C@H](CC(N)=O)NC(=O)[C@H](CCCC)NC2=O` [Compound 126] (H-P[Nle]E[Nle]RCSASVECKQKCLAAIGSIFGKC[Nle]NKKCKCYPRE-OH; disulfide 6-27, 12-32, 16-34) yielded an IC50 of 6.49 nM. `CCCC[C@H](NC(=O)[C@@H]1CCCN1)C(=O)N[C@@H](CCC(=O)O)C(=O)N[C@@H](CCCC)C(=O)N[C@@H](CCCNC(=N)N)C(=O)N[C@H]1CSSC[C@@H]2NC(=O)[C@H](CCCCN)NC(=O)CNC(=O)[C@H](Cc3ccccc3)NC(=O)[C@H]([C@@H](C)CC)NC(=O)[C@H](CO)NC(=O)CNC(=O)[C@H]([C@@H](C)CC)NC(=O)[C@H](C)NC(=O)[C@H](C)NC(=O)[C@H](CC(C)C)NC(=O)[C@@H]3CSSC[C@@H](C(=O)N[C@@H](Cc4ccc(O)cc4)C(=O)N4CCC[C@H]4C(=O)N[C@@H](CCCNC(=N)N)C(=O)N[C@@H](CCCCN)C(=O)N[C@@H](CO)C(=O)O)NC(=O)[C@H](CCCCN)NC(=O)[C@H](CSSC[C@H](NC(=O)[C@H](CCC(=O)O)NC(=O)[C@H](C(C)C)NC(=O)[C@H](CO)NC(=O)[C@H](C)NC(=O)[C@H](CO)NC1=O)C(=O)N[C@@H](CCCCN)C(=O)N[C@@H](CCC(N)=O)C(=O)N[C@@H](CCCCN)C(=O)N3)NC(=O)[C@H](CCCCN)NC(=O)[C@H](CCCCN)NC(=O)[C@H](CC(N)=O)NC(=O)[C@H](CCCC)NC2=O` [Compound 127] (H-P[Nle]E[Nle]RCSASVECKQKCLAAIGSIFGKC[Nle]NKKCKCYPRKS-OH; disulfide 6-27, 12-32, 16-34) was tested, and the IC50 was 0.562 nM. `CCCC[C@H](NC(=O)[C@@H]1CCCN1)C(=O)N[C@@H](CCC(=O)O)C(=O)N[C@@H](CCCC)C(=O)N[C@@H](CCCNC(=N)N)C(=O)N[C@H]1CSSC[C@@H]2NC(=O)[C@H](CCCCN)NC(=O)CNC(=O)[C@H](Cc3ccccc3)NC(=O)[C@H]([C@@H](C)CC)NC(=O)[C@H](CO)NC(=O)CNC(=O)[C@H]([C@@H](C)CC)NC(=O)[C@H](C)NC(=O)[C@H](C)NC(=O)[C@H](CC(C)C)NC(=O)[C@@H]3CSSC[C@@H](C(=O)N[C@@H](Cc4ccc(O)cc4)C(=O)N4CCC[C@H]4C(=O)N[C@@H](CCCNC(=N)N)C(=O)N[C@@H](Cc4ccccc4)C(=O)N[C@@H](CCC(=O)O)C(=O)O)NC(=O)[C@H](CCCCN)NC(=O)[C@H](CSSC[C@H](NC(=O)[C@H](CCC(=O)O)NC(=O)[C@H](C(C)C)NC(=O)[C@H](CO)NC(=O)[C@H](C)NC(=O)[C@H](CO)NC1=O)C(=O)N[C@@H](CCCCN)C(=O)N[C@@H](CCC(N)=O)C(=O)N[C@@H](CCCCN)C(=O)N3)NC(=O)[C@H](CCCCN)NC(=O)[C@H](CCCCN)NC(=O)[C@H](CC(N)=O)NC(=O)[C@H](CCCC)NC2=O` [Compound 128] (H-P[Nle]E[Nle]RCSASVECKQKCLAAIGSIFGKC[Nle]NKKCKCYPRFE-OH; disulfide 6-27, 12-32, 16-34) showed an IC50 of 7.18 nM.
